The values that follow come from patent EP4467141A1, “PYRAZOLO-QUINOLINES AS SELECTIVE INHIBITORS OF GENOTOXIC STRESS-INDUCED IKK/NF- KB PATHWAYS FOR CANCER THERAPY” (Max-Delbrück-Centrum für Molekulare Medizin in der …, priority 2023, dated 2024).

Holding throughout (test): Kinase panel study
Common to all, as to format: biochemical
Common to all, as to conditions: read-out: Percentage of inhibition; for inhibition at 1 µM: 1000nM; for inhibition at 10 µM: 10000nM

Assay [1] addresses T1, CSNK2A1 (CK2 alpha 1) (Homo sapiens, UniProt P68400).
T1 construct: purchased Thermo Fisher Scientific
In a few lines:
(§1)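 Inhibition was measured in an outsourced in vitro kinase panel using the ZLyte or Adapta format under the provider's standard procedures. Values are percent inhibition at 10 µM or 1 µM compound, and IC50s were also obtained.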

Assay [2] has as its target T2, HIPK4 (Homo sapiens, UniProt Q8NE63).
T2 construct: purchased Thermo Fisher Scientific
T2 sequence (Q8NE63 1-616): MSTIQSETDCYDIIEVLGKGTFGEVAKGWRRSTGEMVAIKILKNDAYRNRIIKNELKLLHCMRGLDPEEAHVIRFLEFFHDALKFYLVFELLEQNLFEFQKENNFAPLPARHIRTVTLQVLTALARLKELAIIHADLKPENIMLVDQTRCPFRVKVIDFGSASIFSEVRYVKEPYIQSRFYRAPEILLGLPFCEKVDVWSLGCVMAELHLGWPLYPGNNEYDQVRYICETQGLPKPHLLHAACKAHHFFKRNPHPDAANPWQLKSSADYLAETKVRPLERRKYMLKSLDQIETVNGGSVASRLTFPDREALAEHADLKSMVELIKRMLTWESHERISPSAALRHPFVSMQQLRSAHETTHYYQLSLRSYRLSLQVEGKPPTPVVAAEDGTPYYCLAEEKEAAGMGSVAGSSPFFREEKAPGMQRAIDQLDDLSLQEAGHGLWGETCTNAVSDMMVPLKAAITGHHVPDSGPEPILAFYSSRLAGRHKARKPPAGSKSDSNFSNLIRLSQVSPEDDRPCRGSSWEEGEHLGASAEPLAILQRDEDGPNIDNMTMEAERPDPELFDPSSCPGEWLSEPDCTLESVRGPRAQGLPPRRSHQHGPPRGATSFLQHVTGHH
In a few lines:
as §1

Assay [3] addresses T3, FGFR3 V555M (Homo sapiens, UniProt P22607, V555M).
T3 construct: purchased Thermo Fisher Scientific
In a few lines:
as §1

The target of assay [4] is T4, KSR2 (Homo sapiens, UniProt Q6VAB6).
T4 construct: purchased Thermo Fisher Scientific
T4 sequence (Q6VAB6 1-950): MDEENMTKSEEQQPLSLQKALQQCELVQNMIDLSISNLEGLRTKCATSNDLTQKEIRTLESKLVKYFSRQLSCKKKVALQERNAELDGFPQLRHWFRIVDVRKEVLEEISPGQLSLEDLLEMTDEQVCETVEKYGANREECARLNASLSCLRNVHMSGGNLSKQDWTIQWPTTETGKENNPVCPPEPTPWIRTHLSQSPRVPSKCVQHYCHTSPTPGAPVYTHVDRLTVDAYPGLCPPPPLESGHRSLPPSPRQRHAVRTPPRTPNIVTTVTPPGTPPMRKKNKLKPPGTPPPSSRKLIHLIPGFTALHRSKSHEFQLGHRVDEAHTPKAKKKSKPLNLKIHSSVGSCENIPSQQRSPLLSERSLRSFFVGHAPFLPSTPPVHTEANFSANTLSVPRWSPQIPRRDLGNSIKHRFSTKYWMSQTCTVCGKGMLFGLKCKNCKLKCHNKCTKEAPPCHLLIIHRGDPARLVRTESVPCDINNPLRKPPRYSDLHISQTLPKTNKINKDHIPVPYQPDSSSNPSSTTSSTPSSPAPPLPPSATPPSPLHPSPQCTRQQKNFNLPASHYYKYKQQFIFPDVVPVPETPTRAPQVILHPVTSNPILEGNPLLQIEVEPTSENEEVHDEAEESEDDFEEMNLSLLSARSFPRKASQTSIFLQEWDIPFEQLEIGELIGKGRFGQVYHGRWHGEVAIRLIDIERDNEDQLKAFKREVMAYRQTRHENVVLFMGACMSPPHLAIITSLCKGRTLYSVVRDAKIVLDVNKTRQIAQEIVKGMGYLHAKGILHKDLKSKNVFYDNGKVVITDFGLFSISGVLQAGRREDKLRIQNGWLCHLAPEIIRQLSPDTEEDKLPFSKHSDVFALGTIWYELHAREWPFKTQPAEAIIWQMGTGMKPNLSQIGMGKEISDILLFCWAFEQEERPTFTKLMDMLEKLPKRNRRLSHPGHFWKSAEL
The method in brief:
as §1

The target in assay [5] is T5, KIT V559D (Homo sapiens, UniProt P10721, V559D).
T5 construct: purchased Thermo Fisher Scientific
The method in brief: as §1

Assay [6] concerns the target T6, PAK7 (KIAA1264) (Homo sapiens, UniProt Q9P286).
T6 construct: purchased Thermo Fisher Scientific
The method in brief: as §1

Assay [7] has as its target T7, STK25 (YSK1) (Homo sapiens, UniProt O00506).
T7 construct: purchased Thermo Fisher Scientific
The method in brief:
as §1

The target of assay [8] is T8, NEK6 (Homo sapiens, UniProt Q9HC98).
T8 construct: purchased Thermo Fisher Scientific
In a few lines: as §1

The target in assay [9] is T9, PIM2 (Homo sapiens, UniProt Q9P1W9).
T9 construct: purchased Thermo Fisher Scientific
In a few lines:
as §1

Each structure is given as a SMILES string.

T6 sequence (Q9P286 whole entry): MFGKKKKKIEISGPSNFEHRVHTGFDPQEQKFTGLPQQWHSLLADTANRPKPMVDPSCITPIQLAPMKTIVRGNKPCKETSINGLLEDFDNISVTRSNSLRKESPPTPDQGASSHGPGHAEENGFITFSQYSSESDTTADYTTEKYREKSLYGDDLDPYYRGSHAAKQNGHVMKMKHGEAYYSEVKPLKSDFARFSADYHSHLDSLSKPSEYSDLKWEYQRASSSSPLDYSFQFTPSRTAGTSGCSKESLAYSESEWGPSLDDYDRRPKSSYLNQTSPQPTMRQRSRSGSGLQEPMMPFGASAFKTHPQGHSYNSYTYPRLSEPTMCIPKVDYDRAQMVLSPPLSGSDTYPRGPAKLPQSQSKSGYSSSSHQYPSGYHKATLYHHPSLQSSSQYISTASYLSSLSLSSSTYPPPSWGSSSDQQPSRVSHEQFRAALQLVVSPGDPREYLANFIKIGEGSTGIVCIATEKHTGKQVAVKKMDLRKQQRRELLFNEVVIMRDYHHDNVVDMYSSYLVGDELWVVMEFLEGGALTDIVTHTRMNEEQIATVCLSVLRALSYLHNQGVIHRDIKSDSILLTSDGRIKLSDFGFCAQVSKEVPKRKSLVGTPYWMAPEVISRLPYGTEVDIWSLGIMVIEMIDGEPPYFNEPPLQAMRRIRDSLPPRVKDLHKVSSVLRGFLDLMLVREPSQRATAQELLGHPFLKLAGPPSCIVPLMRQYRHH
T1 sequence (P68400 whole entry): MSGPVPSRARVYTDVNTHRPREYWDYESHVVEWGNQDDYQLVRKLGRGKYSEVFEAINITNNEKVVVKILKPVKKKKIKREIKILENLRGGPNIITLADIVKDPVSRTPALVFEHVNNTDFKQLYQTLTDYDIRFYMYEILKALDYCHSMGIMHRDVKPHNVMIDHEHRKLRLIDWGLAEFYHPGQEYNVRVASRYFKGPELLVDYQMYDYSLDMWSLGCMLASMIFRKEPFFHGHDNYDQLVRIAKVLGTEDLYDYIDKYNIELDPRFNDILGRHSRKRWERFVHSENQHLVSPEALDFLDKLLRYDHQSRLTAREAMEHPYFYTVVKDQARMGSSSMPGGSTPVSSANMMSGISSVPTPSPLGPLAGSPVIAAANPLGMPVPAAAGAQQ
T3 sequence (P22607 23-806 V555M): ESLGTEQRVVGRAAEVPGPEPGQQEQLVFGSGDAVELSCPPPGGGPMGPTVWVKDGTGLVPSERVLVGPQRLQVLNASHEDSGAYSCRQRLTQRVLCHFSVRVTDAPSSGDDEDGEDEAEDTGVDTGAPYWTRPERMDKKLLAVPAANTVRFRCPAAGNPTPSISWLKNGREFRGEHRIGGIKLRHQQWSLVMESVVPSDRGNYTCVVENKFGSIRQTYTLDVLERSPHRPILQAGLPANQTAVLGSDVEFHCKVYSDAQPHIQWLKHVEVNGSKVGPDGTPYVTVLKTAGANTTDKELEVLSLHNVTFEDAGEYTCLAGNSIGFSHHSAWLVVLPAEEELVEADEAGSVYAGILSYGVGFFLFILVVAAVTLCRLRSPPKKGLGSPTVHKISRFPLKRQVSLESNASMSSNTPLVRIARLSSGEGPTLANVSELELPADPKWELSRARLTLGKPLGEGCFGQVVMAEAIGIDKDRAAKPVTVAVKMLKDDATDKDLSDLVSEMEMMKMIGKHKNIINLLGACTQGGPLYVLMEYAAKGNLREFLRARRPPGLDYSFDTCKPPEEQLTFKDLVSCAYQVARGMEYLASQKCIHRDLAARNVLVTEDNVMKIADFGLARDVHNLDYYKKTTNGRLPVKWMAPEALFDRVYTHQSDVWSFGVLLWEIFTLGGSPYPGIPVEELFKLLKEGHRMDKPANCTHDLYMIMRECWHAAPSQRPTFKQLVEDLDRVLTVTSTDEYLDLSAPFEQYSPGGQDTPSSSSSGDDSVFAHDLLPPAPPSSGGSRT
T8 sequence (Q9HC98 whole entry): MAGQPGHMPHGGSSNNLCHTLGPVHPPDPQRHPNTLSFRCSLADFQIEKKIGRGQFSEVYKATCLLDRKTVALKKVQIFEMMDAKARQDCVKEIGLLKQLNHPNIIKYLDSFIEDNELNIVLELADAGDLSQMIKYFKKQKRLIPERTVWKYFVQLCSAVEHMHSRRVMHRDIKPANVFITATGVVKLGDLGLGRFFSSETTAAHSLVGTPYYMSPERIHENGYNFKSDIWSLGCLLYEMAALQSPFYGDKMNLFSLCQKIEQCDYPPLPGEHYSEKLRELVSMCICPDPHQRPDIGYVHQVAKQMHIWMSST
T9 sequence (Q9P1W9 whole entry): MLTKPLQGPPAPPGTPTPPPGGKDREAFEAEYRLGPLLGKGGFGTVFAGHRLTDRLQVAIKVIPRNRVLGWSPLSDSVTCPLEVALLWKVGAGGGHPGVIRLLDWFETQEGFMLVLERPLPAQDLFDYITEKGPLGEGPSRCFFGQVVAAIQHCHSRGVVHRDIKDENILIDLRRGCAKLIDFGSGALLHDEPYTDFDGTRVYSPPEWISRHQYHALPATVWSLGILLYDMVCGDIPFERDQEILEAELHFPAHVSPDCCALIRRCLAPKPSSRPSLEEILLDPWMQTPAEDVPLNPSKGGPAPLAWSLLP
T7 sequence (O00506 whole entry): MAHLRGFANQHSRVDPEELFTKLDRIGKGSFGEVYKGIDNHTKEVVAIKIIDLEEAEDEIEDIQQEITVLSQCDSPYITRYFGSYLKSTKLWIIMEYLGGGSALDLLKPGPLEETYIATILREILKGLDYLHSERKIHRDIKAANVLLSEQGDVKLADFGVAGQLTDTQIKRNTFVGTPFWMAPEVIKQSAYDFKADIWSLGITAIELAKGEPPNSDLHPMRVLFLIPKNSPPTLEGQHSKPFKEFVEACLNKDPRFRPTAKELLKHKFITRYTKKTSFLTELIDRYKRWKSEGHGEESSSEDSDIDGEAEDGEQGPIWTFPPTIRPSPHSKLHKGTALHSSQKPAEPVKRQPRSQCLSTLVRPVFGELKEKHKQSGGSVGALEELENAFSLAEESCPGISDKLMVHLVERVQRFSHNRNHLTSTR
T5 sequence (P10721 26-976 V559D): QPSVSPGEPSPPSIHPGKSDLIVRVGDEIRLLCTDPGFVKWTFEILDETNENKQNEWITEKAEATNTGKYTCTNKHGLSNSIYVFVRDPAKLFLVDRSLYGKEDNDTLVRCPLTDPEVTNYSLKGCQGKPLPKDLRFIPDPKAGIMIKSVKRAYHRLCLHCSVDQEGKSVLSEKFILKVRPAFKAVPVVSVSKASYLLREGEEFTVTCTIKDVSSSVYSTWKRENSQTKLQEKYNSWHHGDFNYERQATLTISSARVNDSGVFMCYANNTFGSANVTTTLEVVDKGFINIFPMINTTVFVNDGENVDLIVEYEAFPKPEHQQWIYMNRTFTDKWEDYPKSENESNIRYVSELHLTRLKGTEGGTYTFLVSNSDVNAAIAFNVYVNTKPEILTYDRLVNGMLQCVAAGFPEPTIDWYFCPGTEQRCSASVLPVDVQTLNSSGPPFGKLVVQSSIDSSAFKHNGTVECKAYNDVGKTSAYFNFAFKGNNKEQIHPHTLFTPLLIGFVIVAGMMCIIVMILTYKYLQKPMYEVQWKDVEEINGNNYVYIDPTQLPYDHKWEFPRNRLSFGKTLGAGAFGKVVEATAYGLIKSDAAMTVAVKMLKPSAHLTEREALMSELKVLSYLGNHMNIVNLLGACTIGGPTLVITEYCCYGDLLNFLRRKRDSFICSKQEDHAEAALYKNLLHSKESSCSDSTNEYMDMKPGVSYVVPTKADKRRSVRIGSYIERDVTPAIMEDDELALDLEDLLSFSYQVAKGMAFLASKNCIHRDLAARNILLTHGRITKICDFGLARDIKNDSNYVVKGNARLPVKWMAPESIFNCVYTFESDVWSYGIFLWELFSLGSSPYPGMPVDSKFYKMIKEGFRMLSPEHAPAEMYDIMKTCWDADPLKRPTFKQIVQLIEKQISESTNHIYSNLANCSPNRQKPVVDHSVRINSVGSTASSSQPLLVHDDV

On to `COc1ccc2c(c1OC)c(=O)n1c3ccc(O)cc3c3ccnc2c31` [MW01, 5-Hydroxy-10,11-dimethoxy-9H-benzo[c]indolo[3,2,1-ij][1,5]naphthyridin-9-one], for which the inhibition at 1 µM in assay [1] was found to be 9%; in assay [2], 42%; in assay [3], 5%; in assay [4] it was 5%; in assay [5] it was 11%; in assay [6], 2%. The inhibition at 1 µM in assay [7] is -9%; in [8] it was 4%; in assay [9], 6%. The inhibition at 10 µM in assay [1] is 18%; in assay [2] it was 62%; in assay [3], 11%; in assay [4], 8%; in assay [5] it was 25%; in assay [6] it was 11%. For the same compound, the inhibition at 10 µM is -3% in [7], -4% in assay [8] and 13% in assay [9].
For `COc1ccc2cc3c(N)nn(C(=O)c4cccc(N(C)C)c4)c3nc2c1` [MW05, (3-Amino-7-methoxypyrazolo[3,4-b]quinolin-1-yl)-[3-(dimethylamino)phenyl]methanone], the inhibition at 1 µM was 9% in assay [1]; 12% in assay [2]; -30% in assay [3]; 7% in assay [4]; 13% in assay [5]; 15% in assay [6]. Further, the inhibition at 1 µM in [7] was -3%; in assay [8], 1%; in assay [9], -1%. Further, the inhibition at 10 µM is 5% in assay [1]; 8% in [2]; -9% in assay [3]; -2% in assay [4]; 15% in assay [5]; 13% in [6]. For the same compound, the inhibition at 10 µM was -11% in assay [7], -4% in assay [8] and -3% in assay [9].
